# Experimental data published in PubChem BioAssay (NCI).
#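 In this assay, cells in 96-well plates receive the compound at five concentrations for 48 hours. Endpoints are linearly interpolated between the surrounding concentrations. At the TGI there is no net growth.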
# Assays:
# Test in all cases: NCI-60 cell line screen, 48 h
# A549 NSCLC = system: A549 NSCLC
# ACHN renal = system: ACHN renal
# CCRF-CEM leukemia = system: CCRF-CEM leukemia
# K-562 leukemia = system: K-562 leukemia
# KM12 colon = system: KM12 colon
# LOX IMVI melanoma = system: LOX IMVI melanoma
# MOLT-4 leukemia = system: MOLT-4 leukemia
# NCI-H226 lung = system: NCI-H226 lung
# NCI-H23 lung = system: NCI-H23 lung
# NCI/ADR-RES ovarian = system: NCI/ADR-RES ovarian
# PC-3 prostate = system: PC-3 prostate
# SF-539 CNS = system: SF-539 CNS
# SK-MEL-2 melanoma = system: SK-MEL-2 melanoma
# SN12C renal = system: SN12C renal
# SW-620 colon = system: SW-620 colon
# UACC-257 melanoma = system: UACC-257 melanoma
# A498 renal = system: A498 renal
Structure (SMILES),TGI (A549 NSCLC) [µM],TGI (ACHN renal) [µM],TGI (CCRF-CEM leukemia) [µM],TGI (K-562 leukemia) [µM],TGI (KM12 colon) [µM],TGI (LOX IMVI melanoma) [µM],TGI (MOLT-4 leukemia) [µM],TGI (NCI-H226 lung) [µM],TGI (NCI-H23 lung) [µM],TGI (NCI/ADR-RES ovarian) [µM],TGI (PC-3 prostate) [µM],TGI (SF-539 CNS) [µM],TGI (SK-MEL-2 melanoma) [µM],TGI (SN12C renal) [µM],TGI (SW-620 colon) [µM],TGI (UACC-257 melanoma) [µM],TGI (A498 renal) [µM]
Cc1cc(=O)oc2c(CNC(C)C(=O)O)c(O)ccc12 (stereo not drawn),> 100,> 100,> 100,> 100,> 100,> 100,> 100,> 100,> 100,> 100,> 100,> 100,> 100,> 100,> 100,> 100,
O=C1NCC2(CCN(Cc3ccccc3)CC2)N1,> 100,> 100,> 100,> 100,> 100,> 100,> 100,> 100,> 100,> 100,> 100,> 100,> 100,> 100,> 100,> 100,
OC(c1ccsc1)c1cc2ccccc2s1 (stereo not drawn),> 10,> 10,> 10,> 10,> 10,> 10,> 10,> 10,> 10,> 10,> 10,> 10,> 10,> 10,> 10,> 10,
O=C(O)Cn1nnc2c(=O)[nH][nH]c(=O)c21,> 100,> 100,> 100,> 10,> 100,> 100,> 10,,> 100,> 100,,,> 100,> 100,,> 100,
OC(c1ccc(F)cc1)C(F)(F)c1nc(-c2ccccc2)no1 (stereo not drawn),,67.2,52.2,,,> 100,,,74.7,> 100,63.4,,39.1,39.8,58.9,43.4,39.2
CN(C)CCSC(=Nc1ccccc1)N1C=COC=C1,> 100,> 100,> 100,> 100,> 100,31.8,> 100,> 75.6,> 73.6,,95.5,> 89,32.1,64.6,43.5,33.8,> 100
CC(=O)O[C@H]1C(=O)[C@@]2(C)[C@H]([C@H](OC(=O)c3ccccc3)[C@]3(O)C[C@H](OC(=O)[C@H](O)[C@@H](NC(=O)c4ccccc4)C4CCCCC4)C(C)=C1C3(C)C)[C@]1(OC(C)=O)CO[C@@H]1C[C@@H]2O,> 100,> 72.8,> 62.7,> 51.9,37.1,> 56.4,> 51.6,> 100,> 100,11.4,2.91,0.0214,> 100,,> 100,,
COc1ccc(C(=O)/C=C2\c3ccccc3C(=O)N2C)cc1,> 100,> 100,> 100,> 100,> 100,> 100,> 100,,> 100,> 100,> 100,> 100,> 100,> 100,> 100,> 100,> 100
O/N=C(\C=N\O)c1ccc2c(c1)Sc1ccccc1O2,> 100,42.8,7.43,85.4,> 100,> 100,32.7,69.6,60.3,,66.1,82.4,,37.1,78.7,42,41.6
OCCOCCN1CCN(c2nc(N3CCCC3)c3nc(Cl)c(NCc4ccccc4)nc3n2)CC1,28.4,27.2,32.9,16.4,26.8,23,27.8,40.7,31.4,31.1,27.1,88.3,32,29.4,44.6,27.4,
CC(=O)c1ccc(N2CCN(c3c(O)c4c(c(O)c3Cl)C(=O)C=CC4=O)CC2)cc1,34.8,,2.07,7.1,,,4.57,,,88.5,19.1,30.2,,,12.7,24.1,33.7
C/C(=N\Nc1nc2ccccc2[nH]1)c1ccncn1,> 100,0.986,> 36.6,> 100,35.9,> 42.5,> 100,,> 33.3,4.54,> 100,> 100,> 66.1,10.2,> 100,> 31.6,6.38
CC(=O)Nc1ccc2c3c(cc(O)c2c1)N(C(=O)CCCC(=O)Nc1ccc2c4c(cc(O)c2c1)N(C(=O)OC(C)(C)C)CC4CCl)CC3CCl (stereo not drawn),> 50,31.2,0.599,> 31.4,22.7,> 12.4,0.912,,16.7,> 50,> 15.6,> 50,1.84,> 13.2,> 50,3.34,2.63
Cc1ccc(S(=O)(=O)c2c(N)c3nccn3c3nc4ccccc4nc23)cc1,> 100,> 100,> 100,> 100,> 100,> 100,> 100,,> 100,,,> 100,> 100,> 100,> 100,> 100,
CC1CC(=O)N2CCCNC2=C1C#N (stereo not drawn),> 100,,> 100,> 100,> 100,> 100,> 100,> 100,> 100,> 100,> 100,> 100,> 100,> 100,> 100,> 100,
